# Experiments:
# [1] = target: Kelch domain of human KEAP1 (321-624 aa) (Homo sapiens (Human), UniProt Q14145); assay: KEAP1 KELCH ThermoFluor binding assay; settings: KEAP Kelch […], 1,8-ANS, pH 7.0, average of results obtained, read-out: Tf Kd;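 note: Ligand-induced melting temperature shift of E. coli-expressed KEAP1 Kelch protein, Kd estimated from concentration-response curves of ΔTm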
# [2] = system: Glo-Response ARE-luc2P HEK293 cell line; assay: ARE luciferase reporter cell-based assay; settings: Homo sapiens, HEK293, 24 h, average of results obtained;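 note: luciferase signal tracks Nrf2 activation of the ARE once compounds disrupt KEAP1-Nrf2 binding, read with One-Glo reagent, DMSO serving as low control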
# Sequence of Kelch domain of human KEAP1 (321-624 aa) (Q14145 321-624): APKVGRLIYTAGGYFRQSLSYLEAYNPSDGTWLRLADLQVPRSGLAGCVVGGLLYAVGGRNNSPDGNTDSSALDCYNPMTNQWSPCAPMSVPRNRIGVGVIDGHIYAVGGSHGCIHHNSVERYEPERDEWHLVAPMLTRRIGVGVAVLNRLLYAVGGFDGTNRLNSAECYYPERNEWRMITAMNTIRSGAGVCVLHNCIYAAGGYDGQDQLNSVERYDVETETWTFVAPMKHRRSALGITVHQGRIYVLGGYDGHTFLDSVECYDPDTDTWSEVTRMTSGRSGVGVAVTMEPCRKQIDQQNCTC
Structure (SMILES),Kd [1],EC50 [2]
"Cc1ccc([C@@H](CC(=O)O)c2ccn3c(C(F)(F)F)nnc3c2)cc1CN1C[C@@H]2CCCN2c2ncccc2S1(=O)=O (single isomer, unassigned) [Example 255, (*R)-3-(3-(((S)-5,5-Dioxido-7a,8,9,10-tetrahydropyrido[2,3-f]pyrrolo[2,1-d][1,2,5]thiadiazepin-6(7H)-yl)methyl)-4-methylphenyl)-3-(3-(trifluoromethyl)-[1,2,4]triazolo[4,3-a]pyridin-7-yl)propanoic Acid]",< 1 nM,922 nM
"Cc1ccc([C@@H](CC(=O)O)c2ccn3c(C(F)(F)F)nnc3c2C)cc1CN1CC2(COC2)Oc2ncccc2S1(=O)=O (single isomer, unassigned) [Example 261, (*R)-3-(3-((1′,1′-Dioxidospiro[oxetane-3,4′-pyrido[2,3-b][1,4,5]oxathiazepin]-2′(3′H)-yl)methyl)-4-methylphenyl)-3-(8-methyl-3-(trifluoromethyl)-[1,2,4]triazolo[4,3-a]pyridin-7-yl)propanoic Acid]",< 1 nM,1390 nM
"Cc1ccc([C@@H](c2ccn3c(C(F)(F)F)nnc3c2C)C(C)(C)C(=O)O)cc1CN1C[C@@H]2CCCCN2c2ncc(C#N)cc2S1(=O)=O (single isomer, unassigned) [Example 424, (*S)-3-(3-(((*S)-3-cyano-5,5-dioxido-7,7a,8,9,10,11-hexahydro-6H-dipyrido[2,1-d:2′,3′-f][1,2,5]thiadiazepin-6-yl)methyl)-4-methylphenyl)-2,2-dimethyl-3-(8-methyl-3-(trifluoromethyl)-[1,2,4]triazolo[4,3-a]pyridin-7-yl)propanoic Acid]",< 1 nM,1.65 nM
"Cc1ccc([C@@H](c2ccn3c(C(F)(F)F)nnc3c2C)C(C)(C)C(=O)O)cc1CN1CC2(CC2)Oc2nc(OCCN3CCC3)c(C)cc2S1(=O)=O (single isomer, unassigned) [Example 604, (*S)-3-(3-((7′-(2-(Azetidin-1-yl)ethoxy)-8′-methyl-1′,1′-dioxidospiro[cyclopropane-1,4′-pyrido[2,3-b][1,4,5]oxathiazepin]-2′(3′H)-yl)methyl)-4-methylphenyl)-2,2-dimethyl-3-(8-methyl-3-(trifluoromethyl)-[1,2,4]triazolo[4,3-a]pyridine-7-yl)propanoic Acid]",< 1 nM,8.82 nM
"Cc1cnc2c(c1)S(=O)(=O)N(Cc1cc([C@@H](c3ccn4c(C(F)(F)F)nnc4c3C)C(C)(C)C(=O)O)ccc1C)CC1(COC1)O2 (single isomer, unassigned) [Example 614, (*S)-2,2-dimethyl-3-(4-methyl-3-((8′-methyl-1′,1′-dioxidospiro[oxetane-3,4′-pyrido[2,3-b][1,4,5]oxathiazepin]-2′(3′H)-yl)methyl)phenyl)-3-(8-methyl-3-(trifluoromethyl)-[1,2,4]triazolo[4,3-a]pyridine-7-yl)propanoic Acid]",< 1 nM,0.71 nM
"Cc1cnc2c(c1)S(=O)(=O)N(Cc1cc([C@@H](CC(=O)O)c3ccn4c(C(F)(F)F)nnc4c3C)cnc1C)CC1(CC1)O2 (single isomer, unassigned) [Example 563, (*S)-3-(8-Methyl-3-(trifluoromethyl)-[1,2,4]triazolo[4,3-a]pyridin-7-yl)-3-(6-methyl-5-((8′-methyl-1′,1′-dioxidospiro[cyclopropane-1,4′-pyrido[2,3-b][1,4,5]oxathiazepin]-2′(3′H)-yl)methyl)pyridin-3-yl)propanoic Acid]",21 nM,> 20000 nM
"Cc1ccc([C@H](CC(=O)O)c2ccc3c(nnn3C3CC3)c2C)cc1CN1C[C@@H]2CCCCN2c2ncccc2S1(=O)=O (single isomer, unassigned) [Example 398, (*S)-3-(1-Cyclopropyl-4-methyl-1H-benzo[d][1,2,3]triazol-5-yl)-3-(3-(((*S)-5,5-dioxido-7,7a,8,9,10,11-hexahydro-6H-dipyrido[2,1-d:2′,3′-f][1,2,5]thiadiazepin-6-yl)methyl)-4-methylphenyl)propanoic Acid]",< 1 nM,1.4 nM
"Cc1cnc2c(c1)S(=O)(=O)N(Cc1cc([C@H](c3ccc4c(nnn4C4CC4)c3C)C(C)(C)C(=O)O)ccc1C)CC1(CCNCC1)O2 (single isomer, unassigned) [Example 649, (*R)-3-(1-Cyclopropyl-4-methyl-1H-benzo[d][1,2,3]triazol-5-yl)-2,2-dimethyl-3-(4-methyl-3-((8′-methyl-1′,1′-dioxidospiro[piperidine-4,4′-pyrido[2,3-b][1,4,5]oxathiazepin]-2′(3′)-yl)methyl)phenyl)propanoic Acid]",1450 nM,4750 nM
"CCn1nnc2c(C)c([C@H](c3cc(CN4CC5(CNC5)Oc5ncc(C)cc5S4(=O)=O)c(C)cn3)C(C)(C)C(=O)O)ccc21 (single isomer, unassigned) [Example 595, (*S)-3-(1-Ethyl-4-methyl-1H-benzo[d][1,2,3]triazol-5-yl)-2,2-dimethyl-3-(5-methyl-4-((8′-methyl-1′,1′-dioxidospiro[azetidine-3,4′-pyrido[2,3-b][1,4,5]oxathiazepin]-2′(3′H)-yl)methyl)pyridin-2-yl)propanoic Acid]",4.28 nM,139 nM
"Cc1ccc([C@@H](CC(=O)O)c2ccn3c(C(F)F)nnc3c2C)cc1CN1CC2(CC2)Oc2ncc(F)cc2S1(=O)=O (single isomer, unassigned) [Example 528, (*R)-3-(3-(Difluoromethyl)-8-methyl-[1,2,4]triazolo[4,3-a]pyridin-7-yl)-3-(3-((8′-fluoro-1′,1′-dioxidospiro[cyclopropane-1,4′-pyrido[2,3-b][1,4,5]oxathiazepin]-2′(3′H)-yl)methyl)-4-methylphenyl)propanoic Acid]",< 1 nM,236 nM
"Cc1ccc([C@@H](CC(=O)O)c2ccc3c(nnn3CC3CC3)c2C)cc1CN1CC2(CC2)N(C)c2ncccc2S1(=O)=O (single isomer, unassigned) [Example 79, (*R)-3-(1-(Cyclopropylmethyl)-4-methyl-1H-benzo[d][1,2,3]triazol-5-yl)-3-(4-methyl-3-((5′-methyl-1′,1′-dioxido-5′H-spiro[cyclopropane-1,4′-pyrido[2,3-f][1,2,5]thiadiazepin]-2′(3′H)-yl)methyl)phenyl)propanoic Acid]",5.6 nM,153 nM
"Cc1ccc([C@H](CC(=O)O)c2ccc3c(nnn3CC3CC3)c2C)cc1CN1C[C@@H]2CCCCN2c2ncccc2S1(=O)=O (single isomer, unassigned) [Example 232, (*S)-3-(1-(Cyclopropylmethyl)-4-methyl-1H-benzo[d][1,2,3]triazol-5-yl)-3-(3-(((*S)-5,5-dioxido-7,7a,8,9,10,11-hexahydro-6H-dipyrido[2,1-d:2′,3′-f][1,2,5]thiadiazepin-6-yl)methyl)-4-methylphenyl)propanoic Acid]",< 1 nM,2.6 nM
"Cc1ccc([C@H](CC(=O)O)c2ccn3c(C(F)F)nnc3c2C)cc1CN1CC2(CC2)Oc2ncc(F)cc2S1(=O)=O (single isomer, unassigned) [Example 527, (*S)-3-(3-(Difluoromethyl)-8-methyl-[1,2,4]triazolo[4,3-a]pyridin-7-yl)-3-(3-((8′-fluoro-1′,1′-dioxidospiro[cyclopropane-1,4′-pyrido[2,3-b][1,4,5]oxathiazepin]-2′(3′H)-yl)methyl)-4-methylphenyl)propanoic Acid]",< 1 nM,22.2 nM
"CCn1nnc2c(C)c(C(CC(=O)O)c3ccc(C)c(CN4C[C@H]5CCCN5c5ncccc5S4(=O)=O)n3)ccc21 (stereo partly drawn) [Example 296, 3-(6-(((R)-5,5-Dioxido-7a,8,9,10-tetrahydropyrido[2,3-f]pyrrolo[2,1-d][1,2,5]thiadiazepin-6(7H)-yl)methyl)-5-methylpyridin-2-yl)-3-(1-ethyl-4-methyl-1H-benzo[d][1,2,3]triazol-5-yl)propanoic Acid]",< 1 nM,13.6 nM
"Cc1cnc2c(c1)S(=O)(=O)N(Cc1cc(C(CC(=O)O)c3ccn4c(C(F)F)nnc4c3C)ccc1C)CC1(CC1)O2 (centres unmarked) [Example 535, 3-(3-(Difluoromethyl)-8-methyl-[1,2,4]triazolo[4,3-a]pyridin-7-yl)-3-(4-methyl-3-((8′-methyl-1′,1′-dioxidospiro[cyclopropane-1,4′-pyrido[2,3-b][1,4,5]oxathiazepin]-2′(3′H)-yl)methyl)phenyl)propanoic Acid]",< 1 nM,146 nM
"Cc1cnc2c(c1)S(=O)(=O)N(Cc1cc([C@@H](c3ccn4c(C(F)(F)F)nnc4c3C)C(C)(C)C(=O)O)ccc1C)C[C@]1(CCOC1)O2 (single isomer, unassigned) [Example 383, (*S)-2,2-Dimethyl-3-(4-methyl-3-(((*S)-8′-methyl-1′,1′-dioxido-4,5-dihydro-2H-spiro[furan-3,4′-pyrido[2,3-b][1,4,5]oxathiazepin]-2′(3′H)-yl)methyl)phenyl)-3-(8-methyl-3-(trifluoromethyl)-[1,2,4]triazolo[4,3-a]pyridin-7-yl)propanoic Acid]",< 1 nM,1.2 nM

# From patent US10947252B2, “Inhibitors of KEAP1-Nrf2 protein-protein interaction” (Janssen Pharmaceutica NV, priority 2018, dated 2021)
